Source: PubChem BioAssay (NCI)
Values joined by “and” are separate entries in the source; they are usually repeats but may differ in a detail not shown here. Identical values can stand only once.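 Compound exposure: 48 hours, 5 concentrations, 96-well plates. GI50 marks 50% less growth. The concentration for full growth arrest is given as TGI.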

Columns and labels:
Assay in all cases: growth of human tumour cells (NCI), 48 h
SK-MEL-5 melanoma = tested on: SK-MEL-5 melanoma
COLO 205 colon = tested on: COLO 205 colon
RXF 393 renal = tested on: RXF 393 renal
SNB-75 CNS = tested on: SNB-75 CNS
HOP-92 NSCLC = tested on: HOP-92 NSCLC
MOLT-4 leukemia = tested on: MOLT-4 leukemia
OVCAR-8 ovarian = tested on: OVCAR-8 ovarian
U251 CNS = tested on: U251 CNS
MDA-N = tested on: MDA-N
SK-MEL-28 melanoma = tested on: SK-MEL-28 melanoma
UACC-257 melanoma = tested on: UACC-257 melanoma
NCI-H522 lung = tested on: NCI-H522 lung
TK-10 renal = tested on: TK-10 renal
BT-549 breast = tested on: BT-549 breast

NNC(=O)c1n[nH]nc1SSc1n[nH]nc1C(=O)NN
TGI (SK-MEL-5 melanoma): > 100 µM
TGI (COLO 205 colon): > 100 µM
TGI (RXF 393 renal): > 100 µM
TGI (SNB-75 CNS): > 100 µM
TGI (HOP-92 NSCLC): > 100 µM
TGI (MOLT-4 leukemia): > 100 µM
TGI (OVCAR-8 ovarian): > 100 µM
TGI (U251 CNS): > 100 µM
TGI (MDA-N): > 100 µM
TGI (SK-MEL-28 melanoma): > 100 µM
TGI (UACC-257 melanoma): > 100 µM
TGI (NCI-H522 lung): > 100 µM
TGI (TK-10 renal): > 100 µM
TGI (BT-549 breast): > 100 µM

Cc1ccc(C2=Nc3c(N)nc(N)nc3NC(c3ccccc3)C2)cc1 (stereo not given)
TGI (SK-MEL-5 melanoma): 34.4 µM
GI50 (COLO 205 colon): 5.21 µM and 11.4 µM
TGI (COLO 205 colon): 14 µM and 25.3 µM
TGI (RXF 393 renal): 25.2 µM and 21.3 µM
TGI (SNB-75 CNS): 29.8 µM and 27.4 µM
TGI (HOP-92 NSCLC): 24.3 µM and 24.9 µM
TGI (MOLT-4 leukemia): 28.3 µM and 97.6 µM
TGI (OVCAR-8 ovarian): 29.3 µM and 28.8 µM
TGI (U251 CNS): 24.6 µM and 26.4 µM
TGI (MDA-N): 5.64 µM and 5.72 µM
TGI (SK-MEL-28 melanoma): 24.8 µM and 35.3 µM
TGI (UACC-257 melanoma): 24.6 µM and 32.4 µM
TGI (NCI-H522 lung): 16 µM and 30.9 µM
TGI (TK-10 renal): 27.6 µM and 40.2 µM
TGI (BT-549 breast): 22 µM and 23.6 µM

Cn1c(=O)n(CC(Br)CBr)c(=O)n(CC(Br)CBr)c1=O (stereo not given)
TGI (SK-MEL-5 melanoma): 32.9 µM
TGI (COLO 205 colon): 43.4 µM
TGI (RXF 393 renal): > 100 µM
TGI (SNB-75 CNS): > 100 µM
TGI (HOP-92 NSCLC): > 100 µM
TGI (MOLT-4 leukemia): 87.1 µM
TGI (OVCAR-8 ovarian): > 100 µM
TGI (U251 CNS): > 100 µM
TGI (MDA-N): > 100 µM
TGI (SK-MEL-28 melanoma): > 100 µM
TGI (UACC-257 melanoma): > 100 µM
TGI (NCI-H522 lung): > 100 µM
TGI (TK-10 renal): > 100 µM
TGI (BT-549 breast): > 100 µM

Cc1[nH]c2ccccc2c1C=Nc1ccc(Oc2ccccc2)cc1
TGI (SK-MEL-5 melanoma): 28.9 µM
TGI (COLO 205 colon): 30.1 µM
TGI (RXF 393 renal): 31.7 µM
TGI (SNB-75 CNS): 26.1 µM
TGI (HOP-92 NSCLC): 31.2 µM
TGI (MOLT-4 leukemia): 35.7 µM
TGI (OVCAR-8 ovarian): 43.4 µM
TGI (U251 CNS): 29.3 µM
TGI (MDA-N): 31.9 µM
TGI (SK-MEL-28 melanoma): 34.7 µM
TGI (UACC-257 melanoma): 31.8 µM
TGI (NCI-H522 lung): 31.6 µM
TGI (TK-10 renal): 30.2 µM
TGI (BT-549 breast): 35.5 µM

COC(=O)C1=C(C)NC(C)=C([N+](=O)[O-])C1c1cccc(NO)c1 (stereo not given)
TGI (SK-MEL-5 melanoma): 15 µM
TGI (COLO 205 colon): 4.74 µM
TGI (RXF 393 renal): > 85.4 µM
TGI (SNB-75 CNS): > 100 µM
TGI (HOP-92 NSCLC): 28 µM
TGI (MOLT-4 leukemia): > 26 µM
TGI (OVCAR-8 ovarian): 37.5 µM
TGI (U251 CNS): > 100 µM
TGI (MDA-N): 4.14 µM
TGI (SK-MEL-28 melanoma): > 69.4 µM
TGI (UACC-257 melanoma): 28.1 µM
TGI (NCI-H522 lung): 13.9 µM
TGI (TK-10 renal): 26 µM
TGI (BT-549 breast): 16.4 µM

COC/C=C\[C@@]1(O)CCCC[C@@H]1CC(OC)OC
TGI (SK-MEL-5 melanoma): > 100 µM
TGI (COLO 205 colon): > 100 µM
TGI (RXF 393 renal): > 92.1 µM
TGI (SNB-75 CNS): > 100 µM
TGI (HOP-92 NSCLC): > 100 µM
TGI (MOLT-4 leukemia): 31.4 µM
TGI (OVCAR-8 ovarian): > 85.8 µM
TGI (U251 CNS): > 100 µM
TGI (MDA-N): > 100 µM
TGI (SK-MEL-28 melanoma): > 80.6 µM
TGI (UACC-257 melanoma): > 100 µM
TGI (NCI-H522 lung): 38.4 µM
TGI (TK-10 renal): > 100 µM
TGI (BT-549 breast): > 100 µM
